Earlier results, collected in patent US12454515B2, “2-aminoindane compounds for mental disorders or enhancement” (Tactogen Inc, priority 2020, dated 2025).

Test system: neuritogenesis
Details: literature value

Which results are given for `CNC(C)Cc1ccc2c(c1)OCO2` (centres unmarked) [MDMA]?
EC50 (Ly et al. Cell reports 23 (2018) Figure S3, read-out: EC50 for promoting neuritogenesis): 7.41 nM; Emax for promoting neuritogenesis (relative to ketamine, Ly et al. 2018): approximately twice that of ketamine
